# Source: US9199975B2, “Biaryl imidazole derivatives for regulating CYP17” (Asana Biosciences, LLC, priority 2011, dated 2015)
# Biological target: T1, rat CYP17 (Rattus norvegicus, UniProt P11715)
# T1 construct: Rat testis tissue was collected and disrupted with 30 strokes of a glass homogenizer; from tissue; host or cells: rat testis (microsomal fraction)
# T1 sequence (P11715 1-507): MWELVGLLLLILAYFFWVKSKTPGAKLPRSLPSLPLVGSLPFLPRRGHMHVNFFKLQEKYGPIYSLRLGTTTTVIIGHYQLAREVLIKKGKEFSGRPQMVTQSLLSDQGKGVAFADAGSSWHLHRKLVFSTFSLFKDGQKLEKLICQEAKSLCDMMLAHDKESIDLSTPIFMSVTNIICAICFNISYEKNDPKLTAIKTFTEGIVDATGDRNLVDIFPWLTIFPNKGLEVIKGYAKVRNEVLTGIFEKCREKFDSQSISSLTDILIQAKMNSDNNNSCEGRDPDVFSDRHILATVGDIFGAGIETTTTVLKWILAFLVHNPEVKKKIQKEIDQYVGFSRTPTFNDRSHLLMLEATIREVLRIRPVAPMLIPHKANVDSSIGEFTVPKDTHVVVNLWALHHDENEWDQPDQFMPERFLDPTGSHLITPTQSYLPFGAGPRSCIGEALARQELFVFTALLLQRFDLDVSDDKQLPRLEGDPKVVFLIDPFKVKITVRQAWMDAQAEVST
# Assay: CYP17 inhibition assay in rat testicular microsomes
# Assay type: biochemical
# Conditions: 3H3-17α-hydroxypregnenolone substrate, 60 minutes at 37° C.
# Procedure: CYP17 Inhibition Assay in Rat Testicular Microsomes (Rat CYP17) or Yeast Microsome Overexpressing Human CYP17
# A. Materials • 1. NADPH (Sigma): A working stock was prepared by adding 25 μL of 6.5 mM NADPH in each tube. The final concentration of NADPH used in the assay was 325 μM. • 2. Potassium Phosphate Buffer: One molar (1M) solutions of K2HPO4 and KH2PO4 were prepared. Eight mL of the 1 M KH2PO4 and 1.98 mL of the 1 M K2HPO4 were combined and the pH was adjusted to 7.4. • 3. ^3H3-17α-hydroxypregnenolone (American Radiolabeled Chemicals, Inc., stock 1 μCi/μL): A 1:1 dilution of ^3H3-17α-hydroxypregnenolone in ethanol was prepared by combining 100 μL ^3H3-17α-hydroxypregnenolone+100 μL ethanol for one complete 96 well plate. For the reaction, 2 μL of the diluted ^3H3-17α-hydroxypregnenolone was added in each tube, i.e., 1 μCi/reaction. • 4. Microsome Isolation Buffer: The microsome isolation buffer was prepared by combining 250 mM Sucrose, 5 mM EDTA, 10 mM Tris HCl, 4 mM DTT, and adjusting to pH 7.4. • 5. TEG Buffer: The TEG buffer was prepared by combining 50 mM Tris HCl, 1 mM EDTA, and 20% Glycerol. • 6. Rat Testicular Microsomes: Rat testis tissue was collected and disrupted with 30 strokes of a glass homogenizer on ice with 250 μL of microsome isolation buffer, followed by centrifugation at 10,000 g for 10 minutes at 4° C. The supernatant was collected and centrifuged at 100,000 g for 45 minutes at 4° C. The pellet was dissolved in TEG Buffer and the protein was quantified. The homogenized microsome samples were then frozen at −80° C. • 7. Yeast Microsomes which overexpress the human CYP17 enzyme were obtained from Premas Biotech, India.
# Potassium phosphate buffer (470 μL) was prepared as described above and was added to each well of a deep well plate. The test compound was diluted using a TECAN liquid handler and 5 μL of diluted compound was transferred to each well (96 deep well/1 mL). A solution (25 μL) of 6.5 mM NADPH was added (final concentration of 325 µM in the assay). ^3H3-17α-hydroxypregnenolone (2 μL of the working stock) was added to each tube. The plates were then pre-incubated for 15 minutes at 37° C. Following the pre-incubation, either 5 μL rat testicular microsomes (150-160 μg) or 5 μL of yeast microsomes expressing human CYP17 (1.7 pmol), was added. Incubation was at 37° C. for 60 minutes in the presence of oxygen. The plates were then placed in ice and chloroform (500 μL) was added, mixed well and incubated at 4° C. for 20 minutes. The plates were then centrifuged at 1000 rpm for 15 minutes at 4° C.
# A portion (300 μL) of the aqueous solution was collected and mixed with a 5% aqueous suspension of activated charcoal (300 μL). The plates were then incubated at 4° C. for 30 minutes, after which the plates were centrifuged at 1000 rpm for 15 minutes at 4° C. From this, 125 μL of the aqueous solution was collected and plated into a 96 well plate. Microscint™ 40 [125 μL, Perkin-Elmer; containing a mixture of a polymer based on alkylphenolethoxylate (20-40%), diethanolamine-phosphoric acid ester ammonium salt (10-20%), sodium dioctyl sulphosuccinate (2.5-10%), triethyl phosphate (2.5-10%), 3,6-dimethyl-4-octyne-3,6-diol (≦2.5%), a polymer based on nonylphenolethoxylate (≦2.5%), diisopropyl naphthalene isomers (40-60%), 2,5-diphenyloxazole (≦2.5%), and 9,10-dimethylanthracene] was added and mixed well. After 30 minutes of incubation, the samples were analyzed with a MicroBeta® Trilux microplate liquid scintillation counter and luminometer (Perkin-Elmer).
row,Compound,IC50 [nM]
1,"CC(c1ccc(-c2ccc(N)cc2)cn1)n1ccnc1 (stereo not drawn) [Example 14, 4-(6-(1-(1H-imidazol-1-yl)ethyl)pyridin-3-yl)aniline]",50 to 200
2,"COc1ccc(-c2ncc(C(C)n3ccnc3)s2)cn1 (stereo not drawn) [Example 58, 5-[5-(1-Imidazol-1-yl-ethyl)-thiazol-2-yl]-2-methoxy-pyridine]",50 to 200
3,"CCC(c1ccc(-c2ccc(C(=O)O)cc2)cn1)n1ccnc1 (stereo not drawn) [Example 6, 4-(6-(1-(1H-imidazol-1-yl)propyl)pyridin-3-yl)benzoic acid]",201 to 10000
4,"CCOC(=O)c1ccc(-c2ccc(C(CC)n3ccnc3)nc2)cc1 (stereo not drawn) [Example 5, Ethyl 4-(6-(1-(1H-imidazol-1-yl)propyl)pyridin-3-yl)benzoate]",50 to 200
5,"CC(c1ccc(-c2ccc(=O)n(C(C)C)c2)s1)n1ccnc1 (stereo not drawn) [Example 21, 5-(5-(1-(1H-imidazol-1-yl)ethyl)thiophen-2-yl)-1-isopropylpyridin-2(1H)-one]",< 50
6,"COc1ccc(-c2cccnc2C(C)n2ccnc2)cc1 (stereo not drawn) [Example 66, 2-(1-(1H-imidazol-1-yl)ethyl)-3-(4-methoxyphenyl)-pyridine]",50 to 200
7,"CC(=O)Nc1ccc(-c2ccc(C(C)n3ccnc3)nc2)cc1 (stereo not drawn) [Example 64, N-{4-[6-(1-Imidazol-1-yl-ethyl)-pyridin-3-yl]-phenyl}-acetamide]",201 to 10000
8,"COc1ccc(-c2ccc(C(C)n3ccnc3)nc2)cc1 (stereo not drawn) [Example 15, 2-(1-(1H-imidazol-1-yl)ethyl)-5-(4-methoxyphenyl)pyridine]",50 to 200
9,"COc1ccc(-c2ccc(C(C)(C)n3ccnc3)nc2)cc1 [Example 61, 2-(1-Imidazol-1-yl-1-methyl-ethyl)-5-(4-methoxy-phenyl)-pyridine]",50 to 200
10,"CCC(c1ccc(-c2ccc(COCOC)cc2)cn1)n1ccnc1 (stereo not drawn) [Example 11, 2-(1-(1H-imidazol-1-yl)propyl)-5-(4-((methoxymethoxy)methyl)-phenyl)pyridine]",50 to 200
11,"COc1ccc(-c2ccc(C(CC(C)C)n3ccnc3)nc2)cc1 (stereo not drawn) [Example 62, 2-(1-Imidazol-1-yl-3-methyl-butyl)-5-(4-methoxy-phenyl)-pyridine]",50 to 200
12,"CC(c1cnc(-c2ccc(=O)[nH]c2)s1)n1ccnc1 (stereo not drawn) [Example 63, 5-[5-(1-Imidazol-1-yl-ethyl)-thiazol-2-yl]-1H-pyridin-2-one]",201 to 10000
13,"CC(c1cnc(-c2ccc(C#N)cc2)s1)n1ccnc1 (stereo not drawn) [Example 22, 4-(5-(1-(1H-imidazol-1-yl)ethyl)thiazol-2-yl)benzonitrile]",< 50
14,"CC(c1ccc(-c2ccc(F)cc2)cn1)n1ccnc1 (stereo not drawn) [Example 34, 5-(4-Fluoro-phenyl)-2-(1-imidazol-1-yl-ethyl)-pyridine]",< 50
15,"CCC(c1ccc(-c2ccc(OC)cc2)s1)n1ccnc1 (stereo not drawn) [Example 3, 1-(1-(5-(4-methoxyphenyl)thiophen-2-yl)propyl)-1H-imidazole]",< 50

# Further lines, results first:
row,IC50 [nM],Compound
1,< 50,"CCC(c1ccc(-c2ccc(C(=O)NC)cc2)cn1)n1ccnc1 (stereo not drawn) [Example 9, 4-(6-(1-(1H-imidazol-1-yl)propyl)pyridin-3-yl)-N-methylbenzamide]"
2,< 50,"CC(C)CC(c1ccc(-c2ccc(O)cc2)s1)n1ccnc1 (stereo not drawn) [Example 23, 4-(5-(1-(1H-imidazol-1-yl)-3-methylbutyl)-thiophen-2-yl)phenol]"
3,< 50,"CCc1cc(F)ccc1-c1ncc(C(CC)n2ccnc2)s1 (stereo not drawn) [Example 46, 2-(2-Ethyl-4-fluoro-phenyl)-5-(1-imidazol-1-yl-propyl)-thiazole]"
4,< 50,"CC(C)(c1ccc(-c2ccc(O)cc2)cn1)n1ccnc1 [Example 52, 4-[6-(1-Imidazol-1-yl-1-methyl-ethyl)-pyridin-3-yl]-phenol]"
5,< 50,"CC(c1ccc(-c2cccc(F)c2)cn1)n1ccnc1 (stereo not drawn) [Example 57, 5-(3-Fluoro-phenyl)-2-(1-imidazol-1-yl-ethyl)-pyridine]"
6,< 50,"CC(c1ccc(-c2ccccc2F)cn1)n1ccnc1 (stereo not drawn) [Example 40, 5-(2-Fluoro-phenyl)-2-(1-imidazol-1-yl-ethyl)-pyridine]"
7,< 50,"CCOC(=O)c1ccc(-c2ncc(C(C)n3ccnc3)s2)cc1 (stereo not drawn) [Example 55, 4-[5-(1-Imidazol-1-yl-ethyl)-thiazol-2-yl]-benzoic acid ethyl ester]"
8,< 50,"CCC(c1ccc(-c2ccccc2F)cn1)n1ccnc1 (stereo not drawn) [Example 48, 5-(2-Fluoro-phenyl)-2-(1-imidazol-1-yl-propyl)-pyridine]"
9,< 50,"CCC(c1ccc(-c2ccc(CO)cc2)cn1)n1ccnc1 (stereo not drawn) [Example 41, {4-[6-(1-Imidazol-1-yl-propyl)-pyridin-3-yl]-phenyl}-methanol]"
10,< 50,"CCC(c1ccc(-c2cccc(C#N)c2)cn1)n1ccnc1 (stereo not drawn) [Example 53, 3-[6-(1-Imidazol-1-yl-propyl)-pyridin-3-yl]-benzonitrile]"
11,< 50,"CCC(c1cnc(-c2ccc(F)cc2F)s1)n1ccnc1 (stereo not drawn) [Example 32, 2-(2,4-Difluoro-phenyl)-5-(1-imidazol-1-yl-propyl)-thiazole]"
12,< 50,"CCC(c1ccc(-c2ccc(O)cc2)s1)n1ccnc1 (stereo not drawn) [Example 4, 4-(5-(1-(1H-imidazol-1-yl)propyl)thiophen-2-yl)phenol]"
13,< 50,"COc1ccc(-c2ccc(C(C)n3ccnc3)s2)cn1 (stereo not drawn) [Example 25, 5-[5-(1-Imidazol-1-yl-ethyl)-thiophen-2-yl]-2-methoxy-pyridine]"
14,< 50,"CCC(c1ccc(-c2ccc(F)cc2)cn1)n1ccnc1 (stereo not drawn) [Example 29, 5-(4-Fluoro-phenyl)-2-(1-imidazol-1-yl-propyl)-pyridine]"
15,< 50,"CCC(c1cnc(-c2ccc(F)cc2)s1)n1ccnc1 (stereo not drawn) [Example 33, 2-(4-Fluoro-phenyl)-5-(1-imidazol-1-yl-propyl)-thiazole]"
16,< 50,"CC(C)(c1ccc(-c2ccc(O)cc2)s1)n1ccnc1 [Example 26, 4-[5-(1-Imidazol-1-yl-1-methyl-ethyl)-thiophen-2-yl]-phenol]"
17,< 50,"CCC(c1ccc(-c2ccc(NC(C)=O)cc2)cn1)n1ccnc1 (stereo not drawn) [Example 43, N-{4-[6-(1-Imidazol-1-yl-propyl)-pyridin-3-yl]-phenyl}-acetamide]"
18,< 50,"CCC(c1ccc(-c2cccc(F)c2)cn1)n1ccnc1 (stereo not drawn) [Example 45, 5-(3-Fluoro-phenyl)-2-(1-imidazol-1-yl-propyl)-pyridine]"
19,< 50,"CCC(c1cnc(-c2cn[nH]c2)s1)n1ccnc1 (stereo not drawn) [Example 44, 5-(1-Imidazol-1-yl-propyl)-2-(1H-pyrazol-4-yl)-thiazole]"
20,< 50,"CC(c1ccc(-c2ccc(O)cc2)cn1)n1ccnc1 (stereo not drawn) [Example 16, 4-(6-(1-(1H-imidazol-1-yl)ethyl)pyridin-3-yl)phenol]"
21,< 50,"CCC(c1cnc(-c2ccc(NC(=O)OC(C)(C)C)cc2)s1)n1ccnc1 (stereo not drawn) [Example 31, {4-[5-(1-Imidazol-1-yl-propyl)-thiazol-2-yl]-phenyl}-carbamic acid tert-butyl ester]"
